Data: PubChem BioAssay AID248 (DTP/NCI, 2004)
Values joined by “and” are separate entries in the source; they are usually repeats but may differ in a detail not shown here. Identical values can stand only once. Toxic doses and inconclusive results are not listed.

Test system: L1210 leukemia ip in BDF1 mice, survival T/C
Test: NCI In Vivo Anticancer Drug Screen. Data for tumor model L1210 Leukemia (intraperitoneal) in B6D2F1 (BDF1) mice
Settings: endpoint: mean survival time, higher = longer survival
Method in brief: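 Mice bearing the transplanted tumor received compound or vehicle. Survival of the treated group was divided by that of the vehicle-treated control group to give the ratio.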

[1] = dose: 100.0 mg/kg/injection, schedule: Q01DX001 (ip), vehicle: carboxymethylcellulose (CMC)
[2] = dose: 200.0 mg/kg/injection, schedule: Q01DX001 (ip), vehicle: carboxymethylcellulose (CMC)
[3] = dose: 400.0 mg/kg/injection, schedule: Q01DX001 (ip), vehicle: carboxymethylcellulose (CMC)
[4] = dose: 100.0 mg/kg/injection, schedule: Q01DX001 (ip), vehicle: saline
[5] = dose: 200.0 mg/kg/injection, schedule: Q01DX001 (ip), vehicle: saline
[6] = dose: 400.0 mg/kg/injection, schedule: Q01DX001 (ip), vehicle: saline

With CC(=O)NC1=C(N2CC2C)C(=O)C(NC(C)=O)=C(N2CC2C)C1=O (stereo unspecified) the T/C (dose: 0.25 mg/kg/injection, schedule: Q01DX009 (ip), vehicle: saline) was 109 % of control, the T/C (dose: 0.31 mg/kg/injection, schedule: Q01DX Z (ip), vehicle: saline) was 103 % of control and the T/C (dose: 0.5 mg/kg/injection, schedule: Q01DX009 (ip), vehicle: saline) was 103 % of control. The T/C (dose: 0.63 mg/kg/injection, schedule: Q01DX Z (ip), vehicle: saline) was 103 % of control, the T/C (dose: 1.0 mg/kg/injection, schedule: Q01DX009 (ip), vehicle: saline) was 114 % of control and the T/C (dose: 1.25 mg/kg/injection, schedule: Q01DX Z (ip), vehicle: saline) was 106 % of control. For the same compound, the T/C (dose: 2.0 mg/kg/injection, schedule: Q01DX009 (ip), vehicle: saline) was 120 % of control, the T/C (dose: 2.5 mg/kg/injection, schedule: Q01DX009 (ip), vehicle: saline) was 184 % of control and the T/C (dose: 5.0 mg/kg/injection, schedule: Q01DX001 (ip), vehicle: saline) was 118 % of control. For the same compound, the T/C (dose: 5.0 mg/kg/injection, schedule: Q01DX009 (ip), vehicle: saline) was 108 % of control, the T/C (dose: 10.0 mg/kg/injection, schedule: Q01DX001 (ip), vehicle: saline) was 171 % of control and the T/C (dose: 10.0 mg/kg/injection, schedule: Q01DX Z (ip), vehicle: saline) was 96 % of control and 111 % of control. For the same compound, the T/C (dose: 20.0 mg/kg/injection, schedule: Q01DX001 (ip), vehicle: saline) was 118 % of control, the T/C (dose: 20.0 mg/kg/injection, schedule: Q01DX009 (ip), vehicle: saline) was 111 % of control and the T/C (dose: 20.0 mg/kg/injection, schedule: Q01DX Z (ip), vehicle: saline) was 103 % of control. For the same compound, the T/C (dose: 40.0 mg/kg/injection, schedule: Q01DX Z (ip), vehicle: saline) was 178 % of control, the T/C (dose: 50.0 mg/kg/injection, schedule: Q01DX009 (ip), vehicle: saline) was 100 % of control and the T/C (dose: 75.0 mg/kg/injection, schedule: Q01DX001 (ip), vehicle: saline) was 186 % of control. The T/C (dose: 75.0 mg/kg/injection, schedule: Q01DX009 (ip), vehicle: saline) was 92 % of control and the T/C (dose: 150.0 mg/kg/injection, schedule: Q01DX001 (ip), vehicle: saline) was 112 % of control.

In the case of CCCCC(=O)N/N=C/c1ccc(Cl)c(Cl)c1, the T/C [1] is reported as 88 % of control, the T/C [2] is reported as 110 % of control and the T/C [3] is reported as 91 % of control.

N#CC(Nc1cc(=O)[nH]c(=O)[nH]1)c1ccccc1 (stereo unspecified) was tested, and the T/C (dose: 100.0 mg/kg/injection, schedule: Q04DX002 (ip), vehicle: Klucel (hydroxypropylcellulose) (HPC)) was 105 % of control and the T/C (dose: 200.0 mg/kg/injection, schedule: Q04DX002 (ip), vehicle: Klucel (hydroxypropylcellulose) (HPC)) was 108 % of control.

In the case of COc1ccc2nccc(C=O)c2c1, the T/C (dose: 50.0 mg/kg/injection, schedule: Q01DX001 (ip), vehicle: carboxymethylcellulose (CMC)) is reported as 108 % of control, the T/C [1] is reported as 102 % of control and the T/C (dose: 100.0 mg/kg/injection, schedule: Q01DX009 (ip), vehicle: saline with Tween-80) is reported as 101 % of control. The T/C [2] was 102 % of control, the T/C (dose: 200.0 mg/kg/injection, schedule: Q01DX009 (ip), vehicle: saline with Tween-80) was 95 % of control and the T/C (dose: 200.0 mg/kg/injection, schedule: Q04DX003 (ip), vehicle: saline with Tween-80) was 101 % of control. The T/C [3] was 96 % of control and the T/C (dose: 400.0 mg/kg/injection, schedule: Q04DX003 (ip), vehicle: saline with Tween-80) was 89 % of control.

With CC(C#N)Oc1cccc2ccccc12 (stereo unspecified) the T/C (dose: 100.0 mg/kg/injection, schedule: Q01DX009 (ip), vehicle: DMSO) was 87 % of control, the T/C (dose: 100.0 mg/kg/injection, schedule: Q04DX003 (ip), vehicle: DMSO) was 92 % of control and the T/C (dose: 200.0 mg/kg/injection, schedule: Q01DX009 (ip), vehicle: DMSO) was 87 % of control. For the same compound, the T/C (dose: 200.0 mg/kg/injection, schedule: Q04DX003 (ip), vehicle: DMSO) was 87 % of control and the T/C (dose: 400.0 mg/kg/injection, schedule: Q04DX003 (ip), vehicle: DMSO) was 103 % of control.

In the case of COc1ccc(/C=C/C(=O)c2ccc(OC)c(OC)c2)cc1O, the T/C (dose: 100.0 mg/kg/injection, schedule: Q01DX009 (ip), vehicle: saline) is reported as 96 % of control, the T/C (dose: 100.0 mg/kg/injection, schedule: Q04DX003 (ip), vehicle: saline) is reported as 95 % of control and the T/C (dose: 200.0 mg/kg/injection, schedule: Q01DX009 (ip), vehicle: saline) is reported as 120 % of control. The T/C (dose: 200.0 mg/kg/injection, schedule: Q04DX003 (ip), vehicle: saline) was 98 % of control, the T/C (dose: 400.0 mg/kg/injection, schedule: Q01DX009 (ip), vehicle: saline) was 91 % of control and the T/C (dose: 400.0 mg/kg/injection, schedule: Q04DX003 (ip), vehicle: saline) was 95 % of control.

For O=C1c2cc(Br)ccc2-c2c(N=Cc3ccc4c(c3)OCO4)cc(Br)cc21, the T/C (dose: 100.0 mg/kg/injection, schedule: Q01DX001 (ip), vehicle: other) was 95 % of control, the T/C (dose: 200.0 mg/kg/injection, schedule: Q01DX001 (ip), vehicle: other) was 103 % of control and the T/C (dose: 400.0 mg/kg/injection, schedule: Q01DX001 (ip), vehicle: other) was 106 % of control.

CC(=O)OC1COC(n2cnc3c(N4CCCCC4)nc(Cl)nc32)C(OC(C)=O)C1OC(C)=O (stereo unspecified) was tested, and the T/C [4] was 102 % of control, the T/C [5] was 96 % of control and the T/C [6] was 102 % of control.

With O=C1CC2(CCNCC2)C(=O)N1N1CCCCCC1 the T/C [4] was 110 % of control, the T/C [5] was 112 % of control and the T/C [6] was 100 % of control.

For CCCS(=O)(=O)N1CCCCCC1, the T/C (dose: 100.0 mg/kg/injection, schedule: Q04DX002 (ip), vehicle: saline with Tween-80) was 92 % of control, the T/C (dose: 200.0 mg/kg/injection, schedule: Q04DX002 (ip), vehicle: saline with Tween-80) was 92 % of control and the T/C (dose: 400.0 mg/kg/injection, schedule: Q04DX002 (ip), vehicle: saline with Tween-80) was 92 % of control.

For NC(=S)N/N=C/c1c[nH]c2ccccc12, the T/C (dose: 100.0 mg/kg/injection, schedule: Q01DX009 (ip), vehicle: Klucel (hydroxypropylcellulose) (HPC)) was 95 % of control, the T/C (dose: 100.0 mg/kg/injection, schedule: Q04DX003 (ip), vehicle: Klucel (hydroxypropylcellulose) (HPC)) was 87 % of control and the T/C (dose: 200.0 mg/kg/injection, schedule: Q01DX009 (ip), vehicle: Klucel (hydroxypropylcellulose) (HPC)) was 97 % of control. The T/C (dose: 200.0 mg/kg/injection, schedule: Q04DX003 (ip), vehicle: Klucel (hydroxypropylcellulose) (HPC)) was 96 % of control and the T/C (dose: 400.0 mg/kg/injection, schedule: Q04DX003 (ip), vehicle: Klucel (hydroxypropylcellulose) (HPC)) was 94 % of control.

In the case of O=C(CCN1CC1)OCCOC(=O)CCN1CC1, the T/C (dose: 7.1 mg/kg/injection, schedule: Q01DX Z (ip), vehicle: methylcellulose (MC)) is reported as 97 % of control, the T/C (dose: 7.2 mg/kg/injection, schedule: Q01DX005 (ip), vehicle: saline) is reported as 121 % of control and the T/C (dose: 10.6 mg/kg/injection, schedule: Q01DX Z (ip), vehicle: methylcellulose (MC)) is reported as 113 % of control. The T/C (dose: 12.5 mg/kg/injection, schedule: Q04DX003 (ip), vehicle: acetone) was 109 % of control, the T/C (dose: 16.0 mg/kg/injection, schedule: Q01DX Z (ip), vehicle: methylcellulose (MC)) was 113 % of control and 120 % of control and the T/C (dose: 16.5 mg/kg/injection, schedule: Q04DX003 (ip), vehicle: acetone) was 101 % of control. The T/C (dose: 16.5 mg/kg/injection, schedule: Q04DX003 (ip), vehicle: saline) was 110 % of control, the T/C (dose: 22.0 mg/kg/injection, schedule: Q01DX001 (ip), vehicle: saline) was 122 % of control and the T/C (dose: 24.0 mg/kg/injection, schedule: Q01DX Z (ip), vehicle: methylcellulose (MC)) was 98 % of control and 103 % of control. For the same compound, the T/C (dose: 25.0 mg/kg/injection, schedule: Q01DX009 (ip), vehicle: acetone) was 150 % of control, the T/C (dose: 25.0 mg/kg/injection, schedule: Q04DX003 (ip), vehicle: acetone) was 103 % of control and the T/C (dose: 37.5 mg/kg/injection, schedule: Q01DX009 (ip), vehicle: acetone) was 160 % of control. The T/C (dose: 37.5 mg/kg/injection, schedule: Q04DX003 (ip), vehicle: acetone) was 106 % of control, the T/C (dose: 37.5 mg/kg/injection, schedule: Q04DX003 (ip), vehicle: saline) was 105 % of control and the T/C (dose: 50.0 mg/kg/injection, schedule: Q04DX003 (ip), vehicle: acetone) was 124 % of control. For the same compound, the T/C (dose: 55.0 mg/kg/injection, schedule: Q01DX005 (ip), vehicle: saline) was 155 % of control.

In the case of CC1CN=C(c2ccc(NC(=O)c3ccc(C(=O)Nc4ccc(C5=NCC(C)CN5)cc4)nc3)cc2)NC1 (stereo unspecified), the T/C (dose: 2.0 mg/kg/injection, schedule: Q01DX001 (ip), vehicle: water) is reported as 97 % of control and 101 % of control, the T/C (dose: 4.0 mg/kg/injection, schedule: Q01DX001 (ip), vehicle: water) is reported as 101 % of control and 106 % of control and the T/C (dose: 4.0 mg/kg/injection, schedule: Q01DX015 (ip), vehicle: water) is reported as 250 % of control and 288 % of control. For the same compound, the T/C (dose: 6.0 mg/kg/injection, schedule: Q01DX001 (ip), vehicle: water) was 106 % of control and 115 % of control.
